From patent US9802899B2, “Heterocyclic compounds as pesticides” (BAYER CROPSCIENCE AG, priority 2012, dated 2017)

experiment: Determination of the log P values by HPLC (formic acid method); type: physicochemical; details: reversed-phase HPLC column (C 18), reversed-phase column (C 18), acidic range (pH 3.4), 55° C.
Experimental: 1) Description of Method for Determination of the Log P Values (Formic Acid Method)
Eluents for determination in the acidic range (pH 3.4):
Eluent A: acetonitrile+1 ml of formic acid/liter. Eluent B: water+0.9 ml of formic acid/liter.
The lambda max values were determined in the maxima of the chromatographic signals using the UV spectra from 200 nm to 400 nm.

Going from `O=C(Nc1cnn(-c2ncc(F)cc2F)n1)c1ccccc1C(F)(F)F` [Compound I-2-63, N-[2-(3,5-Difluoropyridin-2-yl)-2H-1,2,3-triazol-4-yl]-2-(trifluoromethyl)benzamide] to `O=C(Nc1nn(-c2ncc(F)cc2F)c2ccc(F)cc12)c1ccccc1C(F)(F)F` [Compound I-5-2, N-[1-(3,5-Difluoropyridin-2-yl)-5-fluoro-1H-indazol-3-yl]-2-(trifluoromethyl)benzamide], the chromatographic logP rises from 2.38 to 3.37.

same assay, conditions: reversed-phase column (C 18), acidic range (pH 3.4), 55° C.

`O=C(Nc1cnn(-c2ncccc2Cl)n1)c1ccccc1I` [Compound I-2-14] and `O=C(Nc1cnn(-c2ncccc2Br)n1)c1ccccc1I` [Compound I-2-18] are within 0.2 log units of each other in “log P” value: 2.36 for the first, 2.43 for the second.

Compared with `O=C(Nc1cnn(-c2ncccc2Cl)n1)c1c(F)cccc1F` [Compound I-2-15], `O=C(Nc1cnn(-c2ncccc2Cl)n1)c1c(F)cccc1C(F)(F)F` [Compound I-2-57] is higher in “log P” value: 2.09 for the first, 2.48 for the second.

Compared with `Cn1nc(C(F)(F)F)c(C(=O)Nc2cnn(-c3ncccc3Cl)n2)c1F` [Compound I-2-16], `O=C(Nc1cnn(-c2ncccc2Cl)n1)c1cccnc1C(F)(F)F` [Compound I-2-55] is lower in “log P” value: 2.19 for the first, 1.95 for the second.

Going from `O=C(Nc1cnn(-c2ncccc2Br)n1)c1ccccc1C(F)(F)F` [Compound I-2-17] to `O=C(Nc1cnn(-c2ncccc2F)n1)c1ccccc1C(F)(F)F` [Compound I-2-44], the “log P” value falls from 2.46 to 2.18.

Going from `O=C(Nc1nn(-c2ccccc2Cl)nc1Cl)c1ccccc1C(F)(F)F` [Compound I-2-19] to `Cc1nn(-c2ccccc2Cl)nc1NC(=O)c1ccccc1C(F)(F)F` [Compound I-2-21], the “log P” value falls from 3.21 to 2.93.

First: O=C(c1ccccc1C(F)(F)F)N(C(=O)c1ccccc1C(F)(F)F)c1nn(-c2ccccc2Cl)nc1Cl [Compound I-2-20]
Second: Cc1nn(-c2ccccc2Cl)nc1N(C(=O)c1ccccc1C(F)(F)F)C(=O)c1ccccc1C(F)(F)F [Compound I-2-22]
The “log P” value of the first is higher: 4.87 for the first, 4.54 for the second.

Going from `O=C(c1cccnc1Cl)N(C(=O)c1cccnc1Cl)c1nn(-c2ccccc2Br)nc1Cl` [Compound I-2-23] to `O=C(c1ccccc1Cl)N(C(=O)c1ccccc1Cl)c1nn(-c2ccccc2Br)nc1Cl` [Compound I-2-30], the “log P” value rises from 3.64 to 4.87.

First: Cc1nn(-c2ccccc2Cl)nc1NC(=O)c1ccccc1I [Compound I-2-24]
Second: Cc1nn(-c2ncccc2Cl)nc1NC(=O)c1ccccc1I [Compound I-2-59]
The “log P” value of the first is higher: 2.92 for the first, 2.28 for the second.

Going from `Cc1nn(-c2ccccc2Cl)nc1N(C(=O)c1ccccc1I)C(=O)c1ccccc1I` [Compound I-2-25] to `Cc1nn(-c2ncccc2Cl)nc1N(C(=O)c1ccccc1I)C(=O)c1ccccc1I` [Compound I-2-61], the “log P” value falls from 4.68 to 4.03.

`O=C(Nc1nn(-c2ccccc2Br)nc1Cl)c1ccccc1C(F)(F)F` [Compound I-2-26] and `O=C(Nc1nn(-c2ccccc2Br)nc1Cl)c1ccccc1Cl` [Compound I-2-29] are within 0.2 log units of each other in “log P” value: 3.22 for the first, 3.09 for the second.

Going from `O=C(c1ccccc1C(F)(F)F)N(C(=O)c1ccccc1C(F)(F)F)c1nn(-c2ccccc2Br)nc1Cl` [Compound I-2-27] to `Cc1nn(-c2ncccc2Cl)nc1N(C(=O)c1ccccc1C(F)(F)F)C(=O)c1ccccc1C(F)(F)F` [Compound I-2-54], the “log P” value falls from 4.87 to 3.93.

First: O=C(Nc1nn(-c2ccccc2Br)nc1Cl)c1cccnc1C(F)(F)F [Compound I-2-28]
Second: O=C(Nc1nn(-c2ccccc2Br)nc1Cl)c1cccnc1Cl [Compound I-2-31]
The “log P” value of the first is higher: 2.77 for the first, 2.46 for the second.

`O=C(Nc1nn(-c2ccccc2Br)nc1Cl)c1ccccc1I` [Compound I-2-32] and `O=C(Nc1cnn(-c2ccccc2Br)n1)c1ccccc1I` [Compound I-2-33] are within 0.2 log units of each other in “log P” value: 3.24 for the first, 3.06 for the second.

First: O=C(c1ccccc1I)N(C(=O)c1ccccc1I)c1nn(-c2ccccc2Br)nc1Cl [Compound I-2-34]
Second: O=C(c1ccccc1C(F)(F)F)N(C(=O)c1ccccc1C(F)(F)F)c1cnn(-c2ncccc2Cl)n1 [Compound I-2-52]
The “log P” value of the first is higher: 5.06 for the first, 3.74 for the second.

`O=C(Nc1cnn(-c2c(F)cccc2F)n1)c1ccccc1Br` [Compound I-2-36] and `O=C(Nc1cnn(-c2c(F)cccc2F)n1)c1ccccc1Cl` [Compound I-2-38] are within 0.2 log units of each other in “log P” value: 2.71 for the first, 2.66 for the second.

Compared with `O=C(Nc1cnn(-c2c(F)cccc2F)n1)c1cccnc1Br` [Compound I-2-37], `O=C(Nc1cnn(-c2c(F)cccc2F)n1)c1cccnc1C(F)(F)F` [Compound I-2-76] is higher in “log P” value: 2.09 for the first, 2.40 for the second.

First: O=C(Nc1cnn(-c2c(F)cccc2F)n1)c1ccsc1I [Compound I-2-40]
Second: O=C(Nc1cnn(-c2ncccc2F)n1)c1ccsc1I [Compound I-2-50]
The “log P” value of the first is higher: 2.90 for the first, 2.20 for the second.

`O=C(Nc1cnn(-c2ccc(C(F)(F)F)cn2)n1)c1ccccc1C(F)(F)F` [Compound I-2-42] and `O=C(Nc1cnn(-c2ccc(C(F)(F)F)cn2)n1)c1ccccc1I` [Compound I-2-43] are within 0.2 log units of each other in “log P” value: 3.02 for the first, 3.04 for the second.

Compared with `O=C(Nc1cnn(-c2ncccc2F)n1)c1cccnc1C(F)(F)F` [Compound I-2-45], `O=C(Nc1cnn(-c2ncc(F)cc2F)n1)c1cccnc1C(F)(F)F` [Compound I-2-67] is higher in “log P” value: 1.76 for the first, 2.00 for the second.

`O=C(Nc1cnn(-c2ncccc2F)n1)c1ccccc1Br` [Compound I-2-46] and `O=C(Nc1cnn(-c2ncccc2F)n1)c1ccccc1Cl` [Compound I-2-48] are within 0.2 log units of each other in “log P” value: 2.04 for the first, 1.99 for the second.

First: O=C(Nc1cnn(-c2ncccc2F)n1)c1cccnc1Br [Compound I-2-47]
Second: O=C(Nc1cnn(-c2ncc(F)cc2F)n1)c1cccnc1Br [Compound I-2-69]
The “log P” value of the first is lower: 1.49 for the first, 1.71 for the second.

Compared with `Cc1nn(-c2ncccc2Cl)nc1NC(=O)c1ccccc1C(F)(F)F` [Compound I-2-53], `O=C(Nc1nn(-c2ncccc2Cl)nc1Cl)c1ccccc1I` [Compound I-2-60] is higher in “log P” value: 2.33 for the first, 2.57 for the second.

Compared with `O=C(Nc1cnn(-c2ncccc2Cl)n1)c1cccnc1Cl` [Compound I-2-56], `O=C(Nc1cnn(-c2ncc(Cl)cc2Cl)n1)c1ccccc1I` [Compound I-2-65] is higher in “log P” value: 1.66 for the first, 3.04 for the second.

Compared with `O=C(Nc1cnn(-c2cc(F)cnc2F)n1)c1ccccc1C(F)(F)F` [Compound I-2-62], `O=C(Nc1cnn(-c2ncc(F)cc2F)n1)c1ccccc1C(F)(F)F` [Compound I-2-66] is lower in “log P” value: 2.77 for the first, 2.43 for the second.

Going from `O=C(Nc1cnn(-c2ncc(Cl)cc2Cl)n1)c1cccnc1C(F)(F)F` [Compound I-2-64] to `O=C(Nc1cnn(-c2ncc(C(F)(F)F)cc2Cl)n1)c1ccccc1I` [Compound I-2-75], the “log P” value rises from 2.54 to 3.28.

`O=C(Nc1cnn(-c2ncc(F)cc2F)n1)c1ccccc1Br` [Compound I-2-68] and `O=C(Nc1cnn(-c2ncc(F)cc2F)n1)c1ccccc1Cl` [Compound I-2-70] are within 0.2 log units of each other in “log P” value: 2.27 for the first, 2.22 for the second.

First: O=C(Nc1cnn(-c2ncc(F)cc2F)n1)c1c(F)cccc1C(F)(F)F [Compound I-2-71]
Second: O=C(Nc1cnn(-c2ncc(F)cc2F)n1)c1ncccc1C(F)(F)F [Compound I-2-84]
The “log P” value of the first is higher: 2.51 for the first, 2.28 for the second.

`O=C(Nc1cnn(-c2ncc(F)cc2F)n1)c1ccsc1I` [Compound I-2-72] and `O=C(Nc1cnn(-c2ncc(F)cc2F)n1)c1ccccc1I` [Compound I-2-73] are within 0.2 log units of each other in “log P” value: 2.44 for the first, 2.39 for the second.

First: O=C(Nc1cnn(-c2ncc(C(F)(F)F)cc2Cl)n1)c1ccccc1C(F)(F)F [Compound I-2-74]
Second: O=C(Nc1cnn(-c2c(F)cccc2F)n1)c1ccncc1C(F)(F)F [Compound I-2-81]
The “log P” value of the first is higher: 3.28 for the first, 2.36 for the second.

`O=C(Nc1cnn(-c2c(F)cccc2F)n1)c1c(F)cccc1F` [Compound I-2-77] and `O=C(NC1=NN(c2c(F)cccc2F)CC1)c1c(F)cccc1F` [Compound I-4-3] are the same in “log P” value: 2.59 for the first, 2.59 for the second.

`Cn1cc(C(=O)Nc2cnn(-c3c(F)cccc3F)n2)c(C(F)F)n1` [Compound I-2-78] and `O=C(Nc1cnn(-c2c(F)cccc2F)n1)c1cnccc1C(F)(F)F` [Compound I-2-83] are within 0.2 log units of each other in “log P” value: 2.22 for the first, 2.36 for the second.

`O=C(Nc1cnn(-c2c(F)cccc2F)n1)c1nccnc1C(F)(F)F` [Compound I-2-79] and `O=C(Nc1cnn(-c2c(F)cccc2F)n1)c1ncccc1C(F)(F)F` [Compound I-2-80] are within 0.2 log units of each other in “log P” value: 2.60 for the first, 2.78 for the second.

Compared with `O=C(Nc1cnn(-c2c(F)cccc2F)n1)c1sccc1C(F)(F)F` [Compound I-2-82], `O=C(Nc1cnn(-c2ncc(F)cc2F)n1)c1sccc1C(F)(F)F` [Compound I-2-85] is lower in “log P” value: 2.95 for the first, 2.50 for the second.

Compared with `O=C(Nc1ccn(-c2c(F)cccc2F)c1)c1c(F)cccc1F` [Compound I-3-2], `O=C(Nc1ccn(-c2c(F)cccc2F)c1)c1ccccc1I` [Compound I-3-3] is higher in “log P” value: 2.68 for the first, 2.96 for the second.

`COc1ccc(C(=O)Nc2ccn(-c3c(F)cccc3F)c2)c(Cl)c1` [Compound I-3-4] and `O=C(Nc1ccn(-c2c(F)cccc2F)c1)c1ccsc1I` [Compound I-3-7] are within 0.2 log units of each other in “log P” value: 2.97 for the first, 3.07 for the second.

Going from `O=C(Nc1ccn(-c2c(F)cccc2F)c1)c1cccnc1C(F)(F)F` [Compound I-3-5] to `O=C(Nc1ccn(-c2c(F)cccc2F)c1)c1occc1I` [Compound I-3-6], the “log P” value rises from 2.52 to 2.96.

Going from `O=C(NC1=NN(c2c(F)cccc2F)CC1)c1ccccc1Cl` [Compound I-4-1] to `O=C(NC1=NN(c2c(F)cccc2F)CC1)c1ccccc1I` [Compound I-4-4], the “log P” value falls from 2.75 to 2.31.

`Cc1ccccc1C(=O)NC1=NN(c2c(F)cccc2F)CC1` [Compound I-4-5] and `O=C(NC1=NN(c2c(F)cccc2F)CC1)c1ccccc1C(F)(F)F` [Compound I-4-7] are within 0.2 log units of each other in “log P” value: 2.21 for the first, 2.34 for the second.

First: Cc1ccccc1C(=O)N(C(=O)c1cccnc1C)C1=NN(c2c(F)cccc2F)CC1 [Compound I-4-6]
Second: O=C(NC1=NN(c2ccccc2Cl)CC1)c1ccccc1Br [Compound I-4-8]
The “log P” value of the first is higher: 4.45 for the first, 2.37 for the second.
